Consider nine compounds from patent publication US4146501A, “Process for isolating and purifying taste bud receptors for screening and evaluating tastants” (priority 1976, dated 1979).

Each structure is given as a SMILES string. Entries after “also recorded” stand apart in the source; their conditions may differ. Read-outs that look alike come from different tables or passages of the source.

Experiment [1] concerns the target taste bud P4(B) subfractions. Briefly: Specific binding: competition of 14C sugars or SSS with unlabeled homologous and heterologous sugars, Scatchard analysis. Further details: species or system bovine. Conditions: for Kd: mean ± 1 SEM; for specific binding (competition of 14C sugar or SSS with homologous unlabeled sugar or SSS): taste bud P4(B), FIG. 7; for Inhibition (%) of 14C Fructose binding by unlabelled sugar / Inhibition (%) of 14C Glucose binding by unlabelled sugar / Inhibition (%) of 14C Sucrose binding by unlabelled sugar: maximal concentration of unlabelled sugar, range of values; for Relative Binding Inhibition: homologous set at 100.
Method: All binding studies were carried out in plastic micro test tubes in a constant temperature shaking bath. […] After incubation the tubes were placed in an ice bath, centrifuged, the supernatant aspirated and 10 μl KRB layered on top of the pellet. The KRB was then aspirated, the top of the test tube cut off with a razor blade just above the bellet, placed into 10 ml Aquasol (New England Nuclear Corp., Boston, Mass.) and the radioactivity determined in a liquid scintillation spectrophotometer. Controls, without filtrates or subfractions, were also included.

The subject of experiment [2] is taste bud subfraction P4(B). Briefly: Binding inhibition of 14C sucrose by various substances. Further details: species or system bovine.
For experiment [3] the following is noted: man; cited from earlier work.
Experiment [4] has as its system non-taste bud bearing epithelial tissue filtrates and B subfractions [P2,4(B)]. Briefly: Binding of 14C sugars to non-taste bud bearing epithelial tissue filtrates and B subfractions (control). The arrangement: species or system bovine. As to conditions: Epi; for 14C sugar binding: 30 min at 30° C. On the procedure:
(§1) The following procedure was utilized in tastant evaluation according to the process of this invention: Protein concentrations were determined by the methods of Lowry et al., (1951) J. Biol. […] According to density, physical appearance as determined by using electron microscopic morphology enzymatic activity and chemical analysis, B subfractions from taste buds and epithelial tissues achieved the greatest membrane purification compared with other subfractions. Among the taste bud B subfractions, P4(B) was morphologically more homogeneous with respect to membranes than P3(B) whereas P2(B) was the least homogeneous of all. Epithelial tissue B subfractions contained mainly fibrous tissue and few differences were found in morphology, density, enzymatic activity or chemical analysis between P2(B) or P4(B) subfractions. Taste bud and epithelial tissue D subfractions contained relatively few membrane fragments compared to the large amount of other cellular organelles present and therefore were not included in these studies. […] Each filtrate and subfraction was washed three times with calcium free, 0.2 M Krebs-Ringer bicarbonate (KRB) pH 7.4, suspended in the same buffer in a final volume of 2 ml and frozen in liquid nitrogen. No detectable change in binding characteristics from suspensions of taste bud or epithelial tissue fractions was observed after storage at -80° for as long as two months. All binding studies were carried out in plastic micro test tubes in a constant temperature shaking bath. For these studies KRB, suspensions of the initial filtrates, subfractions and ^14 C labeled and/or unlabeled sugars were incubated in a final volume of 100 μl. After incubation the tubes were placed in an ice bath, centrifuged, the supernatant aspirated and 10 μl KRB layered on top of the pellet. The KRB was then aspirated, the top of the test tube cut off with a razor blade just above the bellet, placed into 10 ml Aquasol (New England Nuclear Corp., Boston, Mass.) and the radioactivity determined in a liquid scintillation spectrophotometer. Controls, without filtrates or subfractions, were also included. […] The tubes were then placed in an ice bath for 3 minutes, and then centrifuged at 15,000 rpm for 6 min.

For experiment [5] the following is noted: behavioral basis, cow; cited from earlier work.
Experiment [6] concerns taste bud filtrates and B subfractions [P2,3,4(B)]. Kind of experiment: Binding of 14C sugars to taste bud filtrates and B subfractions. The arrangement: species or system bovine. Conditions: Bud; for 14C sugar binding: 30 min at 30° C. On the procedure: as §1
Experiment [7] deals with epithelial tissue P4(B) subfractions. Kind of experiment: Specific binding: competition of 14C sugars or SSS with unlabeled homologous sugars (epithelial control). As to conditions: FIG. 7. The arrangement: species or system bovine. On the procedure:
All binding studies were carried out in plastic micro test tubes in a constant temperature shaking bath. For these studies KRB, suspensions of the initial filtrates, subfractions and ^14 C labeled and/or unlabeled sugars were incubated in a final volume of 100 μl. After incubation the tubes were placed in an ice bath, centrifuged, the supernatant aspirated and 10 μl KRB layered on top of the pellet. The KRB was then aspirated, the top of the test tube cut off with a razor blade just above the bellet, placed into 10 ml Aquasol (New England Nuclear Corp., Boston, Mass.) and the radioactivity determined in a liquid scintillation spectrophotometer. Controls, without filtrates or subfractions, were also included.

Setting [8] is: non-linear Scatchard plot, primary class of binding sites, read-out: Kd (dissociation constant), K1.
Setting [9] is: non-linear Scatchard plot, secondary class of binding sites, read-out: Kd (dissociation constant), K2.
Where [10] appears, read: secondary class of binding sites.
Setting [11] is: Filtrate, 14C glucose 200 μM, fructose 400 μM, sucrose 26 μM.
[12] abbreviates: Scatchard plot, single class of sites, read-out: Kd (dissociation constant).
[13] abbreviates: section FRUCTOSE (as the 14C sugar per footnote) with each unlabelled sugar.
Where [14] appears, read: section SUCROSE (as the 14C sugar per footnote) with each unlabelled sugar.

By Kd is commonly meant the free concentration of one partner at which half of the binding sites on the other are occupied at equilibrium, for simple one-to-one binding. Regarding `O=S(=O)(O)NC1CCCCC1` [CYCLAMATE, cyclamate], the Kd was 11.7 ± 2.4 mM in experiment [1] (setting [8]) and 32.6 ± 3.9 mM in experiment [1] (setting [9]). Also, in experiment [1] (primary class of binding sites), the “q (concentration of sugar or SSS bound per mg subfraction protein), K1” value turned out to be 4.0 ± 0.9 mM/mg protein. Also, in experiment [1] (setting [10]), the “q (concentration of sugar or SSS bound per mg subfraction protein), K2” value is 6.6 ± 1.4 mM/mg protein. Also, in experiment [1], the “specific binding (competition of 14C sugar or SSS with homologous unlabeled sugar or SSS)” value was “occurred”.

Consider `O=C(O)CN(CCN(CC(=O)O)CC(=O)O)CC(=O)O` [EDTA, ethylenediaminetetraacetic acid], for which the “inhibition of 14C sucrose binding” value in experiment [2] was “approximately 40%”.

As to `O=C(CO)[C@@H](O)[C@H](O)[C@H](O)CO` [Fructose, fructose], the “Recognition thresholds in man” value in experiment [3] is 0.01 to 0.03 M. Further, the 14C sugar binding worked out at 88000 cpm/mg protein in experiment [4] (setting [11]); 95000 cpm/mg protein in experiment [4] (P2(B)); 78000 cpm/mg protein in experiment [4] (P4(B)); 153000 cpm/mg protein in experiment [6] (setting [11]); 569000 cpm/mg protein in experiment [6] (P2(B)); 1.3e+06 cpm/mg protein in experiment [6] (P3(B)). This compound also displayed a 14C sugar binding in experiment [6] (P4(B)) of 2.72e+06 cpm/mg protein. Further, the “Relative enrichment of sugar binding compared to the initial filtrate” value in experiment [4] (P2(B)) is given as 1.1; in experiment [4] (P4(B)) it was 0.9; in experiment [6] (P2(B)) it was 3.7; in experiment [6] (P3(B)), 8.5; in experiment [6] (P4(B)), 17.8. Moreover, in experiment [5], the bovine discrimination thresholds was 0.06 M. For the same compound, the “competition of unlabeled sugar with glucose binding” value in experiment [1] (FIG. 8, in words) is “competed with glucose”. In experiment [1] (FIG. 8, in words), the “competition of unlabeled sugar with sucrose binding” value is “did not”. Further, the Kd in experiment [1] (setting [12]) is 1.8 ± 0.9 mM. The “Inhibition (%) of 14C Fructose binding by unlabelled sugar” value in experiment [1] is given as 70-80%; in experiment [1] (listed as fructose), “about 80%”. In addition, the “Inhibition (%) of 14C Glucose binding by unlabelled sugar” value in experiment [1] is 36-40%. For the same compound, the “Inhibition (%) of 14C Sucrose binding by unlabelled sugar” value in experiment [1] was 14-20%. Moreover, the “Relative Binding Inhibition” value in experiment [1] (setting [13]) turned out to be 100%; in experiment [1] (setting [14]) it was 59%. The “q (concentration of sugar or SSS bound per mg subfraction protein)” value in experiment [1] (single class of sites) worked out at 10.5 ± 1.2 mM/mg protein. Also, the “specific binding (competition of 14C sugar or SSS with homologous unlabeled sugar or SSS)” value in experiment [1] is given as “occurred”.

For the compound `OC[C@H]1OC(O)[C@H](O)[C@@H](O)[C@@H]1O` (stereo partly drawn) [Glucose, glucose], the “Recognition thresholds in man” value in experiment [3] is 0.01 to 0.03 M. Further, the 14C sugar binding in experiment [4] (setting [11]) was found to be 22000 cpm/mg protein; in experiment [4] (P2(B)), 29000 cpm/mg protein; in experiment [4] (P4(B)), 17000 cpm/mg protein; in experiment [6] (setting [11]) it was 37000 cpm/mg protein; in experiment [6] (P2(B)), 120000 cpm/mg protein; in experiment [6] (P3(B)), 360000 cpm/mg protein. Moreover, the 14C sugar binding in experiment [6] (P4(B)) is 348000 cpm/mg protein. Further, the “Relative enrichment of sugar binding compared to the initial filtrate” value in experiment [4] (P2(B)) was determined as 1.3; in experiment [4] (P4(B)), 0.8; in experiment [6] (P2(B)), 3.2; in experiment [6] (P3(B)) it was 9.7; in experiment [6] (P4(B)), 9.4. For the same compound, in experiment [1] (FIG. 8, in words), the “competition of unlabeled sugar with fructose binding” value is “did not compete”. In experiment [1] (FIG. 8, in words), the “competition of unlabeled sugar with sucrose binding” value is on record as “did not compete”. Besides, the Kd in experiment [1] (setting [12]) stood at 3.4 ± 1.1 mM. In addition, in experiment [1], the “Inhibition (%) of 14C Fructose binding by unlabelled sugar” value is reported as 14-20%. Further, the “Inhibition (%) of 14C Glucose binding by unlabelled sugar” value in experiment [1] is recorded as 70-80%; in experiment [1] (listed as glucose), “eighty”. Also, the “Inhibition (%) of 14C Sucrose binding by unlabelled sugar” value in experiment [1] is 14-20%. In addition, the entries for the “Relative Binding Inhibition” value in experiment [1] (setting [13]), in experiment [1] (section GLUCOSE (as the 14C sugar per footnote) with each unlabelled sugar) and in experiment [1] (setting [14]) were 51%, 100% and 32%, respectively. The “q (concentration of sugar or SSS bound per mg subfraction protein)” value in experiment [1] (single class of sites) amounted to 2.5 ± 0.5 mM/mg protein. Moreover, in experiment [1], the “specific binding (competition of 14C sugar or SSS with homologous unlabeled sugar or SSS)” value is recorded as “occurred”.

In the case of `[Cl-].[Na+]` [NaCl], in experiment [2], the “inhibition of 14C sucrose binding” value was around 50%.

Regarding `O=C1NS(=O)(=O)c2ccccc21` [SACCHARINE, saccharine], the Kd in experiment [1] (setting [8]) is 18.3 ± 3.9 mM; in experiment [1] (setting [9]) it was 66.2 ± 6.8 mM. Also, in experiment [1] (primary class of binding sites), the “q (concentration of sugar or SSS bound per mg subfraction protein), K1” value stood at 2.7 ± 1.0 mM/mg protein. Also, the “q (concentration of sugar or SSS bound per mg subfraction protein), K2” value in experiment [1] (setting [10]) is 6.4 ± 0.4 mM/mg protein. Besides, the “specific binding (competition of 14C sugar or SSS with homologous unlabeled sugar or SSS)” value in experiment [1] was “occurred”.

In the case of `[Cl-].[Cl-].[Zn+2]` [ZnCl2], the “sucrose binding activity restored, of the initial activity measured in the absence of EDTA” value in experiment [2] (5 mM EDTA plus 20 mM Zn++) was “about 85%”.

Regarding `OC[C@H]1O[C@@H](O[C@H]2[C@H](O)[C@@H](O)C(O)O[C@@H]2CO)[C@H](O)[C@@H](O)[C@H]1O` (stereo partly drawn) [lactose], the “specific binding (competition of 14C sugar or SSS with homologous unlabeled sugar or SSS)” value in experiment [7] and in experiment [1] was “did not compete; also recorded: did not bind specifically” each time.

With `NC(N)=O` [urea], the “inhibition of 14C sucrose binding” value in experiment [2] (urea 5M, 26 μM 14C sucrose) is on record as around 30%.
